According to US20130096193A1, “CREATINE BETA-ALANINATE: A NOVEL SALT FOR INCREASING ATHLETIC PERFORMANCE” (priority 2009, published 2013):
Read-outs that look alike come from different tables or passages of the source.

Columns and labels:
[1] = after 10 week supplementation; cited from earlier work
[2] = cited from earlier work

| Compound | additional β-alanine administrable before symptoms of paraesthesia, compared with β-alanine alone (human subjects, oral) | single oral dose administered before the onset of paraesthesia was noted (human subjects, oral, gelatin capsules, single dose) | equivalent β-alanine dose before onset of paraesthesia (salt mass is about 40.45% β-alanine) | increase in intramuscular carnosine content, average [1] [%] | paraesthesia symptoms ([2]; 10 mg per kg body weight, some individuals) | paraesthesia symptoms ([2]; 20 mg per kg bodyweight, majority of individuals) | paraesthesia symptoms ([2]; 40 mg per kg body weight) | ingested amount that causes paraesthesia ([2]; in solution or as powder in gelatin capsules) | duration of paraesthesia ([2]; oral) | time to beginning of paraesthesia after oral administration ([2]; oral) |
| --- | --- | --- | --- | --- | --- | --- | --- | --- | --- | --- |
| creatine β-alaninate | roughly 100% | up to 55.00 mg/kg | about 22.25 mg/kg |  |  |  |  |  |  |  |
| NCCC(=O)O [β-alanine, 3-Aminopropanoic acid] |  |  |  | 80.1 | mild symptoms | significant symptoms | severe symptoms | above 10 mg per kg body weight | up to 1 hour | about 20 minutes |
